The source of these data is patent US9687498B1, “Composition for preventing or treating muscle wasting-related disease and use thereof” (Samsung Electronics Co., Ltd., priority 2015, dated 2017).

What all share (assay type): cell-based, mouse
One assay relates to PGC-1 alpha 4 isoform. As to the kind of experiment: Real time PCR of PGC-1 alpha 4 isoform mRNA in differentiated C2C12 muscle cells. The note with it: 10 μM compound in 0.1% DMSO, about 24 hours, normalized to GAPDH, vs DMSO negative control. The procedure: (§1) In detail, C2C12 cell line (mouse gastrocnemius muscle, ATCC® CRL-1772™) was seeded in a 10% FBS/DMEM culture medium. When the cells reached about 70% confluence in 5% CO2 incubator at 37° C., the culture medium was replaced by 2% FBS/DMEM, and further cultured for about 4 days to induce complete differentiation into muscle cells. The C2C12 cell line is a mouse myoblast cell line obtained through continuous culture of myoblasts cultured from the gastrocnemius muscle of C3H mice.
(§2) When the C2C12 cells were completely differentiated, the medium was removed, and 10 μM (in 0.1% DMSO) of active compound for screening was added to the cultured muscle cells, followed by incubation under conditions of 37° C. and 5% CO2 for about 24 hours. As the active compound for screening, a library of a total of 700 compounds (Selleck Chemicals) was used. Thereafter, the cultured muscle cells were washed with PBS to obtain muscle cells. As a negative control, muscle cells treated with DMSO (Sima-Aldrich), instead of the active compound for screening, were used. As a positive control, muscle cells treated with forskolin were used.
(§3) Total RNA was separated according to the manufacturer's protocol by adding a Trizol reagent (Invitrogen) to the obtained cells. cDNA was synthesized from the separated total RNA using reverse transcriptase. The mRNA levels of PGC-1 alpha 4 isoform and myostatin were quantified using a real time PCR (MyiQPCR instrument, BioRad), which is a device for measuring SYBR Green. The resulting amounts were then normalized to the amount of GAPDH mRNA.
(§4) After normalization of the values obtained from the amplification to GAPDH gene, relative mRNA expression levels of PGC-1 alpha 4 isoform and myostatin were quantified. The relative mRNA expression levels (Arbitrary Unit; AU) of PGC-1 alpha 4 isoform and myostatin thus quantified are shown in FIGS. 2A and 2B, respectively (*: p<0.05 vs. negative control).

The test system of a further assay is C2C12 cells. Description: Muscle fiber diameter of differentiated C2C12 muscle cells (microscope). As to conditions: 100 μM compound, about 24 hours, vs DMSO negative control. The procedure: as §1
Muscle fiber-protecting effects of the compounds selected in 1. were examined by measuring the diameter of muscle fiber according to addition of the selected compounds.
As described in Example 1.1, C2C12 cells were completely differentiated to muscle cells. After removal of the medium, 4 ml of a fresh medium containing each 100 μM of isotretinoin (Roche), vismodegib (Genentech), or lincomycin hydrochloride (Sima-Aldrich) was added, and the cells were cultured in a 5% CO2 incubator at 37° C. for about 24 hours. As a negative control, muscle cells treated with DMSO (Sima-Aldrich), instead of the selected compounds, were used. As a positive control, muscle cells treated with forskolin were used.
Thereafter, the cultured cells were washed with PBS. Muscle fibers of the cells were photographed with a microscope (×200), and diameter (μm) of the muscle fiber was measured.

The next assay relates to myostatin. Description: Real time PCR of myostatin mRNA in differentiated C2C12 muscle cells. The note with it: 10 μM compound in 0.1% DMSO, about 24 hours, normalized to GAPDH, vs DMSO negative control. The procedure:
as §1, §2, §3, §4
Background: Real-time PCR tracks product formation cycle by cycle.

Structures can show the parent of a compound that is named as a salt.

Take `CC1=C(/C=C/C(C)=C/C=C/C(C)=C\C(=O)O)C(C)(C)CCC1` [isotretinoin, (2Z,4E,6E,8E)-3,7-dimethyl-9-(2,6,6-trimethylcyclohex-1-en-1-yl)nona-2,4,6,8-tetraenoic acid]: the “level (relative mRNA expression) of PGC-1 alpha 4 isoform compared to the negative control” value in the assay on PGC-1 alpha 4 isoform is given as “increasing”. Moreover, the “muscle fiber diameter compared to the negative control” value in the assay on C2C12 cells is “increased”. For the same compound, the “level (relative mRNA expression) of myostatin compared to the negative control” value in the assay with myostatin is given as “decreasing”.
Consider `CCC[C@@H]1C[C@@H](C(=O)N[C@@H]([C@H]2O[C@H](SC)[C@H](O)[C@@H](O)[C@H]2O)[C@@H](C)O)N(C)C1` [lincomycin hydrochloride, (2S,4R)-N-[(1R,2R)-2-hydroxy-1-[(2R,3R,4S,5R,6R)-3,4,5-trihydroxy-6-(methylsulfanyl)oxan-2-yl]propyl]-1-methyl-4-propylpyrrolidine-2-carboxamide], for which the “level (relative mRNA expression) of PGC-1 alpha 4 isoform compared to the negative control” value in the assay on PGC-1 alpha 4 isoform was “increasing”. Also, the “muscle fiber diameter compared to the negative control” value in the assay on C2C12 cells is recorded as “increased”. In the assay on myostatin, the “level (relative mRNA expression) of myostatin compared to the negative control” value was “decreasing”.
As to `CS(=O)(=O)c1ccc(C(=O)Nc2ccc(Cl)c(-c3ccccn3)c2)c(Cl)c1` [vismodegib, 2-chloro-N-(4-chloro-3-pyridin-2-ylphenyl)-4-methylsulfonylbenzamide], the “level (relative mRNA expression) of PGC-1 alpha 4 isoform compared to the negative control” value in the assay with PGC-1 alpha 4 isoform is recorded as “increasing”. Moreover, the “muscle fiber diameter compared to the negative control” value in the assay with C2C12 cells is “increased”. For the same compound, the “level (relative mRNA expression) of myostatin compared to the negative control” value in the assay on myostatin is listed as “decreasing”.
